Some test systems named below: HS 578T breast; SNB-19 CNS; HOP-62 NSCLC; KM12 colon; SW-620 colon; LOX IMVI melanoma; RXF 393 renal; SNB-75 CNS; SR leukemia; T-47D breast.
Common to all, as to test: NCI-60 cell line screen, 48 h

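Five compound concentrations were applied to cells in 96-well plates for 48 hours; endpoints were derived by simple linear interpolation of the resulting dose-response curve. The concentration for 50% growth inhibition is given as GI50. The concentration for full growth arrest is given as TGI.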

`COC(=O)c1c(-c2ccc(Cl)cc2)cc2c3ccccc3n(C)c2c1C(=O)OC`: the TGI in the assay on HS 578T breast, in the assay with SNB-19 CNS, in the assay with HOP-62 NSCLC, with KM12 colon, in the assay on SW-620 colon and with LOX IMVI melanoma was above 100 µM each time.

As for `C=CC1CN2CCC1CC2C(O)c1ccnc2ccccc12` (stereo not drawn), the TGI in the assay on RXF 393 renal, in the assay with SNB-75 CNS, in the assay on SNB-19 CNS, in the assay with SR leukemia, in the assay with HOP-62 NSCLC and in the assay with KM12 colon was above 100 µM each time. Besides, the TGI with T-47D breast, in the assay on SW-620 colon and in the assay with LOX IMVI melanoma was above 100 µM throughout. For the same compound, the GI50 in the assay with SNB-75 CNS, in the assay with SR leukemia, in the assay on HOP-62 NSCLC and with LOX IMVI melanoma was above 100 µM each time.

Consider `N#Cc1nc(C#N)n(C(=O)c2ccccc2)c1NC(=O)c1ccccc1`, for which the TGI in the assay with RXF 393 renal, with HS 578T breast, in the assay with SNB-75 CNS, in the assay on SNB-19 CNS, with HOP-62 NSCLC and with KM12 colon was above 100 µM in each case. Further, the TGI with T-47D breast, in the assay on SW-620 colon and in the assay with LOX IMVI melanoma was above 100 µM each time.

For `C#CCC1(C(=O)OCC)C(=O)c2ccccc2N(C)C1=O` (stereo not drawn), the TGI with SNB-75 CNS, in the assay on SNB-19 CNS, in the assay with SW-620 colon and in the assay on LOX IMVI melanoma was above 100 µM in each case.

`CC(=O)O[C@H]1CC[C@@]2(C)[C@H](CC[C@@H]3[C@@H]2CC[C@]2(C)[C@@H](c4ccc(=O)oc4)C[C@H]4O[C@]342)C1`: the TGI with RXF 393 renal stood at 0.673 µM; in the assay with SNB-75 CNS it was 3.45 µM; with SNB-19 CNS, 9.36 µM; in the assay on HOP-62 NSCLC, 2.06 µM; with KM12 colon, 36.8 µM; with SW-620 colon, 3.1 µM. This compound had a TGI with LOX IMVI melanoma of 7.67 µM.

On to `CO[C@]1(CN2CCN3CCCC[C@@H]3C2)/C=C/C[C@H](C)[C@@H](C)S(=O)(=O)NC(=O)c2ccc3c(c2)N(C[C@@H]2CC[C@H]21)C[C@@]1(CCCc2cc(Cl)ccc21)CO3`, for which the GI50 is 1.18 µM in the assay with HS 578T breast; 0.371 µM in the assay with SNB-75 CNS; 2.02 µM in the assay on SNB-19 CNS; 1.73 µM in the assay with KM12 colon; 1.87 µM with T-47D breast. The TGI in the assay on HS 578T breast is 3.57 µM; in the assay on SNB-75 CNS it was 2.04 µM; in the assay on SNB-19 CNS, 4.62 µM; in the assay with KM12 colon it was 3.25 µM; in the assay on T-47D breast, 5.11 µM.

For the compound `CC(=O)Nc1cc(Nc2cc(=O)[nH]c(=O)[nH]2)ccc1C`, the TGI in the assay with RXF 393 renal, in the assay with HS 578T breast, in the assay with SNB-75 CNS, in the assay on SNB-19 CNS, in the assay on SR leukemia and in the assay with HOP-62 NSCLC was above 100 µM each time. Moreover, the TGI in the assay on KM12 colon, with SW-620 colon and in the assay on LOX IMVI melanoma was above 100 µM in each case.

Regarding `Cc1csc(NC(=NCCN2CCOCC2)Nc2nc(C)cs2)n1`, the TGI in the assay on RXF 393 renal, with SNB-75 CNS, with SNB-19 CNS, in the assay on HOP-62 NSCLC, in the assay with KM12 colon and in the assay with SW-620 colon was above 100 µM throughout. This compound also had a TGI with LOX IMVI melanoma above 100 µM.

Consider `O=C1c2ccccc2C(=O)N1c1nc(-c2ccc(Cl)cc2)cc(N2N=C(c3ccc(Br)cc3)CC2c2ccccc2)n1` (stereo not drawn), for which the TGI in the assay on HS 578T breast was 20.8 µM; with SNB-19 CNS, above 33.8 µM; in the assay with SR leukemia, 2.42 µM; in the assay on HOP-62 NSCLC, above 23 µM; with KM12 colon it was above 63.9 µM; with T-47D breast, 5.26 µM. In the assay with LOX IMVI melanoma, this compound gave a TGI of 3.78 µM.

For `CC(=O)CC(=O)CCC(=O)O`, the TGI in the assay with RXF 393 renal, in the assay on SNB-19 CNS, in the assay on SR leukemia, with KM12 colon, in the assay on SW-620 colon and in the assay with LOX IMVI melanoma was above 100 µM each time.

On to `O=C1C=CC(=O)c2c(Cl)ccc(O)c21`, for which the TGI was 29.7 µM in the assay on RXF 393 renal; above 63.4 µM in the assay with SNB-75 CNS; above 100 µM in the assay on SNB-19 CNS; above 100 µM in the assay with HOP-62 NSCLC; above 100 µM with KM12 colon; 31.4 µM with SW-620 colon. In the assay with LOX IMVI melanoma, this compound came in with a TGI of 37.2 µM.

Regarding `CCOC(=O)c1cn(C)c(=S)n2c1nc1ccccc12`, the TGI in the assay on RXF 393 renal, in the assay on SNB-75 CNS, in the assay on SNB-19 CNS, with SR leukemia, in the assay with HOP-62 NSCLC and in the assay on KM12 colon was above 100 µM each time. Also, the TGI in the assay on T-47D breast, with SW-620 colon and with LOX IMVI melanoma was above 100 µM in each case.

Consider `Cc1ccccc1OC(C)C(=O)NN1C(=O)CC(=O)N(c2ccccc2)C1=S` (stereo not drawn), for which the TGI in the assay with RXF 393 renal, in the assay on HS 578T breast, with SNB-75 CNS, with SNB-19 CNS, with HOP-62 NSCLC and with KM12 colon was above 100 µM in each case. In addition, the TGI with T-47D breast, with SW-620 colon and in the assay with LOX IMVI melanoma was above 100 µM each time.

Consider `C/C(=N\Nc1nc2ccccc2[nH]1)c1cc2ccccc2cn1`, for which the TGI was 1.74 µM in the assay on HS 578T breast; 1.56 µM in the assay with SNB-75 CNS; 1.64 µM in the assay with SNB-19 CNS; above 100 µM with SR leukemia; 1.88 µM in the assay on KM12 colon; 1.12 µM in the assay with T-47D breast. Further, the TGI with SW-620 colon worked out at 1.65 µM; with LOX IMVI melanoma it was 1.48 µM.

With `COc1ccccc1CNCCCCCCCCCCCCN1C(=O)c2ccc3c4c(ccc(c24)C1=O)C(=O)N(CCCCCCCCCCCCNCc1ccccc1OC)C3=O`, the GI50 with RXF 393 renal was 0.922 µM; in the assay with SNB-75 CNS, 2 µM; with SNB-19 CNS, above 50 µM; with HOP-62 NSCLC it was 3.64 µM; with T-47D breast, above 50 µM; in the assay on SW-620 colon, above 50 µM. Also, the TGI in the assay with RXF 393 renal was 2.11 µM; in the assay on SNB-75 CNS it was 46.9 µM; with SNB-19 CNS, above 50 µM; in the assay on HOP-62 NSCLC, above 50 µM; in the assay with T-47D breast, above 50 µM; in the assay with SW-620 colon it was above 50 µM.

(Values after PubChem BioAssay (NCI).)
